In patent US20250332149A1, “PIPERIDINE COMPOUNDS AND PHARMACEUTICAL COMPOSITIONS” (Lumos Pharma, Inc., priority 2024, published 2025):
Like-named read-outs stand apart in the source and are kept apart here.

Experiment: Phase 1 study Part 1: plasma PK and relative bioavailability of LUM-201 tablets vs capsule
Format: in vivo, human
Conditions: for decrease of DNCmax as compared to the 90 mg tablet dose, fasted: statistically significant; for Tmax / AUC(0-inf) / AUC(0-t) / Cmax / half-life: human, plasma
Source text: This study in healthy adult subjects was designed to establish the pharmacokinetic (PK) and pharmacodynamic (PD) profiles for the orally administered test product (coated mini-tablets in a capsule) and reference product (mini-tablet) to evaluate relative bioavailability in Part 1 and to evaluate the food effect on the bioavailability of test product (capsule only) in Part 2.
This was a single center, open-label, randomized, Phase 1 study in healthy adult subjects. This study consisted of 2 parts: Part 1 was a 4-sequence, 4-treatment, 4 Treatment Periods, crossover study to determine the relative bioavailability of current tablets to new capsule formulations of LUM-201; Part 2 was a 2-sequence, 2-treatment, 2 Treatment Periods, crossover study to evaluate the food effect on the bioavailability of the new capsule formulation of LUM-201. An individual subject was allowed to participate in only 1 part (Part 1 or Part 2) of the study. Forty subjects were planned and enrolled in this study. • Part 1: A total of 28 subjects were planned and enrolled in Part 1. Part 1 consisted of 4 sequences, each having 4 Treatment Periods enrolling 7 subjects (1:1:1:1 ratio). During Treatment Periods 1 through 4, each subject received 4 single oral doses of LUM-201 drug product in a randomized, crossover order. • Part 2: A total of 12 subjects were planned and enrolled in Part 2. Part 2 consisted of 2 sequences, each having 2 Treatment Periods enrolling 6 subjects (1:1 ratio). Each subject received a single oral dose of LUM-201 at each Treatment Period. During Treatment Periods 1 and 2, each subject received 2 single oral doses of LUM-201 in a randomized, crossover order. • On Day 1 of Treatment Period 1, subjects were administered the assigned treatment (A or B) as randomized, followed by a washout of at least 3 days between Treatment Periods 1 and 2. Subjects stayed in-house (not discharged) between the Treatment Periods. • Treatment A was dosed at 85.3 mg capsule formulation of LUM-201 (intact capsule consumed unopened) consumed while subject was in a fasted state with 240 mL of water. • Treatment B was dosed at 85.3 mg capsule formulation of LUM-201 (intact capsule consumed unopened) consumed 30 minutes after start of a high-fat meal with 240 mL of water. • Subjects were discharged from the study center on the morning of Day 3 of Treatment Period 2 after the scheduled study assessments had been completed.
• Treatment A (reference): five 18 mg oral tablets of LUM-201 were administered under fasted state with 240 mL of water. • Treatment B (test): a single 85.3 mg dose of oral capsule formulation of LUM-201 was administered as a whole capsule under fasted state with 240 mL of water. • Treatment C (test): a single 85.3 mg dose of oral capsule formulation of LUM-201 was administered by dosing capsule contents (dry) under fasted state with 240 mL of water. • Treatment D (test): a single 85.3 mg dose of oral capsule formulation of LUM-201 was mixed (capsule contents) with banana puree (2 teaspoons), followed by 240 mL of water and was ingested within 5 minutes under fasted state (Note: Banana Puree, single serve cup was used [118.3 mL]). […]

[1] = Part 1, Treatment D (test): 85.3 mg capsule contents in banana puree, oral, fasted
[2] = Part 1, Treatment D (test): 85.3 mg capsule contents in banana puree, oral, fasted, ANOVA
[3] = test Treatment B (85.3 mg whole capsule, fasted) to reference Treatment A (90 mg tablets, fasted)
[4] = test Treatment C (85.3 mg capsule contents in dosing cup, fasted) to reference Treatment A (90 mg tablets, fasted)
[5] = test Treatment D (85.3 mg capsule contents in banana puree) to reference Treatment A (90 mg tablets, fasted)

- DNAUC0-last, Geometric Mean [1]: 6.276 ng·h/mL/mg
- DNCmax, Arithmetic Mean [1]: 1.422 ng/mL/mg
- DNCmax, Geometric Mean [1]: 1.087 ng/mL/mg
- t1/2, Geometric Mean [1]: 8.09 h
- tlag, Median [1]: 0 h
- tlast, Median [1]: 48.02 h
- λz, Arithmetic Mean [1]: 0.0872 h⁻¹
- λz, Geometric Mean [1]: 0.0856 h⁻¹
- DNAUC0-inf, GLS Mean [2]: 6.38 ng·h/mL/mg
- DNAUC0-last, GLS Mean [2]: 6.26 ng·h/mL/mg
- DNCmax, GLS Mean [2]: 1.08 ng/mL/mg
- decrease of DNCmax as compared to the 90 mg tablet dose, fasted (Treatment B: 85.3 mg whole capsule, fasted): 14.1%
- decrease of DNCmax as compared to the 90 mg tablet dose, fasted (Treatment C: 85.3 mg capsule contents in a dosing cup, fasted): 20.4%
- decrease of DNCmax as compared to the 90 mg tablet dose, fasted (Treatment D: 85.3 mg capsule contents in banana puree): 14.4%
- Tmax (oral, Part 1, post-dose, Treatments A to D, read-out: median tmax, range over all four treatments): 0.782 to 1.23 h
- AUC(0-inf) (po, 85.3 mg, Part 1, Treatment B (test): 85.3 mg whole capsule, oral, fasted, read-out: AUC0-inf, Arithmetic Mean): 566 ng·h/mL
- AUC(0-inf) (po, 85.3 mg, Part 1, Treatment B (test): 85.3 mg whole capsule, oral, fasted, read-out: AUC0-inf, Geometric Mean): 512 ng·h/mL
- AUC(0-t) (po, 85.3 mg, Part 1, Treatment B (test): 85.3 mg whole capsule, oral, fasted, read-out: AUC0-last, Arithmetic Mean): 557 ng·h/mL
- AUC(0-t) (po, 85.3 mg, Part 1, Treatment B (test): 85.3 mg whole capsule, oral, fasted, read-out: AUC0-last, Geometric Mean): 504 ng·h/mL
- Cmax (po, 85.3 mg, Part 1, Treatment B (test): 85.3 mg whole capsule, oral, fasted, read-out: Cmax, Arithmetic Mean): 115 ng/mL
- Cmax (po, 85.3 mg, Part 1, Treatment B (test): 85.3 mg whole capsule, oral, fasted, read-out: Cmax, Geometric Mean): 93.2 ng/mL
- half-life (po, 85.3 mg, Part 1, Treatment B (test): 85.3 mg whole capsule, oral, fasted, read-out: t1/2, Arithmetic Mean (converted)): 8.19 h
- half-life (po, 85.3 mg, Part 1, Treatment B (test): 85.3 mg whole capsule, oral, fasted, read-out: t1/2, Geometric Mean (converted)): 8.06 h
- Tmax (po, 85.3 mg, Part 1, Treatment B (test): 85.3 mg whole capsule, oral, fasted, read-out: tmax, Median): 1.23 h
- AUC(0-inf) (po, 85.3 mg, Part 1, Treatment C (test): 85.3 mg capsule contents (dry), oral, fasted, read-out: AUC0-inf, Arithmetic Mean): 583 ng·h/mL
- AUC(0-inf) (po, 85.3 mg, Part 1, Treatment C (test): 85.3 mg capsule contents (dry), oral, fasted, read-out: AUC0-inf, Geometric Mean): 534 ng·h/mL
- AUC(0-t) (po, 85.3 mg, Part 1, Treatment C (test): 85.3 mg capsule contents (dry), oral, fasted, read-out: AUC0-last, Arithmetic Mean): 573 ng·h/mL
- AUC(0-t) (po, 85.3 mg, Part 1, Treatment C (test): 85.3 mg capsule contents (dry), oral, fasted, read-out: AUC0-last, Geometric Mean): 524 ng·h/mL
- Cmax (po, 85.3 mg, Part 1, Treatment C (test): 85.3 mg capsule contents (dry), oral, fasted, read-out: Cmax, Arithmetic Mean): 98.9 ng/mL
- Cmax (po, 85.3 mg, Part 1, Treatment C (test): 85.3 mg capsule contents (dry), oral, fasted, read-out: Cmax, Geometric Mean): 86.5 ng/mL
- half-life (po, 85.3 mg, Part 1, Treatment C (test): 85.3 mg capsule contents (dry), oral, fasted, read-out: t1/2, Arithmetic Mean (converted)): 8.58 h
- half-life (po, 85.3 mg, Part 1, Treatment C (test): 85.3 mg capsule contents (dry), oral, fasted, read-out: t1/2, Geometric Mean (converted)): 8.47 h
- Tmax (po, 85.3 mg, Part 1, Treatment C (test): 85.3 mg capsule contents (dry), oral, fasted, read-out: tmax, Median): 1.12 h
- AUC(0-inf) (po, 85.3 mg, Part 1, Treatment D (test): 85.3 mg capsule contents in banana puree, oral, fasted, read-out: AUC0-inf, Arithmetic Mean): 629 ng·h/mL
- AUC(0-inf) (po, 85.3 mg, Part 1, Treatment D (test): 85.3 mg capsule contents in banana puree, oral, fasted, read-out: AUC0-inf, Geometric Mean): 546 ng·h/mL
- AUC(0-t) (po, 85.3 mg, Part 1, Treatment D (test): 85.3 mg capsule contents in banana puree, oral, fasted, read-out: AUC0-last, Arithmetic Mean): 619 ng·h/mL
- AUC(0-t) (po, 85.3 mg, Part 1, Treatment D (test): 85.3 mg capsule contents in banana puree, oral, fasted, read-out: AUC0-last, Geometric Mean): 535 ng·h/mL
- Cmax (po, 85.3 mg, Part 1, Treatment D (test): 85.3 mg capsule contents in banana puree, oral, fasted, read-out: Cmax, Arithmetic Mean): 121 ng/mL
- Cmax (po, 85.3 mg, Part 1, Treatment D (test): 85.3 mg capsule contents in banana puree, oral, fasted, read-out: Cmax, Geometric Mean): 92.7 ng/mL
- half-life (po, 85.3 mg, Part 1, Treatment D (test): 85.3 mg capsule contents in banana puree, oral, fasted, read-out: t1/2, Arithmetic Mean (converted)): 8.23 h
- half-life (po, 85.3 mg, Part 1, Treatment D (test): 85.3 mg capsule contents in banana puree, oral, fasted, read-out: t1/2, Geometric Mean (converted)): 8.1 h
- Tmax (po, 85.3 mg, Part 1, Treatment D (test): 85.3 mg capsule contents in banana puree, oral, fasted, read-out: tmax, Median): 1.03 h
- AUC(0-inf) (po, 90 mg, Part 1, Treatment A (reference): five 18 mg tablets (90 mg), oral, fasted, read-out: AUC0-inf, Arithmetic Mean): 630 ng·h/mL
- AUC(0-inf) (po, 90 mg, Part 1, Treatment A (reference): five 18 mg tablets (90 mg), oral, fasted, read-out: AUC0-inf, Geometric Mean): 562 ng·h/mL
- AUC(0-t) (po, 90 mg, Part 1, Treatment A (reference): five 18 mg tablets (90 mg), oral, fasted, read-out: AUC0-last, Arithmetic Mean): 620 ng·h/mL
- AUC(0-t) (po, 90 mg, Part 1, Treatment A (reference): five 18 mg tablets (90 mg), oral, fasted, read-out: AUC0-last, Geometric Mean): 552 ng·h/mL
- Cmax (po, 90 mg, Part 1, Treatment A (reference): five 18 mg tablets (90 mg), oral, fasted, read-out: Cmax, Arithmetic Mean): 132 ng/mL
- Cmax (po, 90 mg, Part 1, Treatment A (reference): five 18 mg tablets (90 mg), oral, fasted, read-out: Cmax, Geometric Mean): 114 ng/mL
- half-life (po, 90 mg, Part 1, Treatment A (reference): five 18 mg tablets (90 mg), oral, fasted, read-out: t1/2, Arithmetic Mean (converted)): 7.95 h
- half-life (po, 90 mg, Part 1, Treatment A (reference): five 18 mg tablets (90 mg), oral, fasted, read-out: t1/2, Geometric Mean (converted)): 7.83 h
- Tmax (po, 90 mg, Part 1, Treatment A (reference): five 18 mg tablets (90 mg), oral, fasted, read-out: tmax, Median): 0.782 h
- DNAUC0-inf, Geo LSM Ratio % [3]: 95.50%
- DNAUC0-last, Geo LSM Ratio % [3]: 95.50%
- DNCmax, Geo LSM Ratio % [3]: 85.90%
- DNAUC0-inf, Geo LSM Ratio % [4]: 99.50%
- DNAUC0-last, Geo LSM Ratio % [4]: 99.40%
- DNCmax, Geo LSM Ratio % [4]: 79.60%
- DNAUC0-inf, Geo LSM Ratio % [5]: 102.20%
- DNAUC0-last, Geo LSM Ratio % [5]: 102.00%
- DNCmax, Geo LSM Ratio % [5]: 85.60%
Compound: CC(C)(N)C(=O)N[C@H](COCc1ccccc1)C(=O)N1CCC2(CC1)CN(S(C)(=O)=O)c1ccccc12 [LUM-201, N-[1(R)-[(1,2-dihydro-1-methanesulfonylspiro[3H-indole-3,4′-piperdin]-yl)carbonyl]-2-(phenylmethyloxy)ethyl]-2-amino-2-methylpropanamide methanesulfonate]
